Data reported in patent US20200024278A1, “COMPOSITION COMPRISING ANTIBIOTIC COMPOUND AND AN HETEROCYCLIC COMPOUND AND THEIR USE IN PREVENTING OR TREATING BACTERIAL INFECTIONS” (MUTABILIS, priority 2016, published 2020).

Legend:
Assay in all cases: MIC, broth microdilution (CLSI), substance alone or ATB combined with compound at 4 or 8 μg/mL
[1] = tested on: SPN 49619; format: cell-based, S. pneumoniae; conditions: SPN 49619
In short: (§1)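 Broth microdilution; ca-MHB; 5·10^5 CFU/mL; 35° C, 16-20 h; compound alone or fixed 4/8 μg/mL with antibiotic series; endpoint = no visible growth.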

[2] = tested on: KPN 6299; format: cell-based, K. pneumoniae
In short: as §1

[3] = tested on: KPN BAA-1898; format: cell-based, K. pneumoniae; conditions: KPN BAA-1898
In short: as §1

[4] = tested on: KPN UFR42; format: cell-based, K. pneumoniae; conditions: KPN UFR42
In short: as §1

[5] = tested on: PAE UFR48; format: cell-based, P. aeruginosa; conditions: PAE UFR48
In short: as §1

[6] = tested on: PAE UFR90; format: cell-based, P. aeruginosa; conditions: PAE UFR90
In short: as §1

## C[C@@H](O)[C@H]1C(=O)N2C(C(=O)O)=C(SCCN=CN)C[C@H]12 [IMI]
[1]; antibiotic alone
  MIC ATB alone: 0.063 mg/L
[1]; with Example 1 @8 μg/ml
  MIC ATB combined with Example 1 @8 μg/ml: <=0.031 μg/mL
[1]; with Example 1 at 8 μg/ml
  MIC ATB combined with Example 1 @8 μg/ml: <=0.031 μg/mL
[1]; with Example 7 at 8 μg/ml
  MIC ATB combined with Example 7 @8 μgml: <=0.031 μg/mL
[1]; with Example 9 @4 μg/ml
  MIC ATB combined with Example 9 @4 μg/ml: <0.031 mg/L
[1]; with Example 9 at 4 μg/ml
  MIC ATB combined with Example 9 @4 μg/ml: <0.031 mg/L
[1]; with Example 11 at 8 μg/ml
  MIC ATB combined with Example 11 @8 μg/ml: <=0.031 μg/mL
[1]; with Example 12 at 8 μg/ml
  MIC ATB combined with Example 12 @8 μg/ml: <0.031 mg/L
[1]; with Example 13 at 8 μg/ml
  MIC ATB combined with Example 13 @8 μg/ml: <=0.031 μg/mL
[1]; with Example 14 at 8 μg/ml
  MIC ATB combined with Example 14 @8 μg/ml: <0.031 mg/L
[1]; with Example 15 at 4 μg/ml
  MIC ATB combined with Example 15 @4 μgml: <0.031 mg/L
[1]; with Example 16 at 4 μg/ml
  MIC ATB combined with Example 16 @4 μg/ml: <0.031 mg/L
[2]; antibiotic alone
  MIC ATB alone: 0.25 mg/L
[2]; with Example 1 @8 μg/ml
  MIC ATB combined with Example 1 @8 μg/ml: 1 mg/L
[2]; with Example 1 at 8 μg/ml
  MIC ATB combined with Example 1 @8 μg/ml: 1 mg/L
[2]; with Example 7 at 8 μg/ml
  MIC ATB combined with Example 7 @8 μgml: 4 mg/L
[2]; with Example 9 @4 μg/ml
  MIC ATB combined with Example 9 @4 μg/ml: <0.031 mg/L
[2]; with Example 9 at 4 μg/ml
  MIC ATB combined with Example 9 @4 μg/ml: <0.031 mg/L
[2]; with Example 11 at 8 μg/ml
  MIC ATB combined with Example 11 @8 μg/ml: <0.031 mg/L
[2]; with Example 12 at 8 μg/ml
  MIC ATB combined with Example 12 @8 μg/ml: <0.031 mg/L
[2]; with Example 13 at 8 μg/ml
  MIC ATB combined with Example 13 @8 μg/ml: 1 mg/L
[2]; with Example 14 at 8 μg/ml
  MIC ATB combined with Example 14 @8 μg/ml: <0.031 mg/L
[2]; with Example 15 at 4 μg/ml
  MIC ATB combined with Example 15 @4 μgml: <0.031 mg/L
[2]; with Example 16 at 4 μg/ml
  MIC ATB combined with Example 16 @4 μg/ml: <0.031 mg/L
[3]; antibiotic alone
  MIC ATB alone: 64 mg/L
[3]; with Example 1 @8 μg/ml
  MIC ATB combined with Example 1 @8 μg/ml: 2 mg/L
[3]; with Example 1 at 8 μg/ml
  MIC ATB combined with Example 1 @8 μg/ml: 2 mg/L
[3]; with Example 7 at 8 μg/ml
  MIC ATB combined with Example 7 @8 μgml: 16 mg/L
[3]; with Example 9 @4 μg/ml
  MIC ATB combined with Example 9 @4 μg/ml: <0.031 mg/L
[3]; with Example 9 at 4 μg/ml
  MIC ATB combined with Example 9 @4 μg/ml: <0.031 mg/L
[3]; with Example 11 at 8 μg/ml
  MIC ATB combined with Example 11 @8 μg/ml: <0.031 mg/L
[3]; with Example 12 at 8 μg/ml
  MIC ATB combined with Example 12 @8 μg/ml: <0.031 mg/L
[3]; with Example 13 at 8 μg/ml
  MIC ATB combined with Example 13 @8 μg/ml: 0.5 mg/L
[3]; with Example 14 at 8 μg/ml
  MIC ATB combined with Example 14 @8 μg/ml: <0.031 mg/L
[3]; with Example 15 at 4 μg/ml
  MIC ATB combined with Example 15 @4 μgml: <0.031 mg/L
[3]; with Example 16 at 4 μg/ml
  MIC ATB combined with Example 16 @4 μg/ml: <0.031 mg/L
[4]; antibiotic alone
  MIC ATB alone: 32 mg/L
[4]; with Example 1 @8 μg/ml
  MIC ATB combined with Example 1 @8 μg/ml: >32 mg/L
[4]; with Example 1 at 8 μg/ml
  MIC ATB combined with Example 1 @8 μg/ml: >32 mg/L
[4]; with Example 7 at 8 μg/ml
  MIC ATB combined with Example 7 @8 μgml: >32 mg/L
[4]; with Example 9 @4 μg/ml
  MIC ATB combined with Example 9 @4 μg/ml: 32 mg/L
[4]; with Example 9 at 4 μg/ml
  MIC ATB combined with Example 9 @4 μg/ml: 32 mg/L
[4]; with Example 11 at 8 μg/ml
  MIC ATB combined with Example 11 @8 μg/ml: <0.031 mg/L
[4]; with Example 12 at 8 μg/ml
  MIC ATB combined with Example 12 @8 μg/ml: <0.031 mg/L
[4]; with Example 13 at 8 μg/ml
  MIC ATB combined with Example 13 @8 μg/ml: >32 mg/L
[4]; with Example 14 at 8 μg/ml
  MIC ATB combined with Example 14 @8 μg/ml: <0.031 mg/L
[4]; with Example 15 at 4 μg/ml
  MIC ATB combined with Example 15 @4 μgml: <0.031 mg/L
[4]; with Example 16 at 4 μg/ml
  MIC ATB combined with Example 16 @4 μg/ml: <0.031 mg/L
[5]; antibiotic alone
  MIC ATB alone: 8 mg/L
[5]; with Example 1 @8 μg/ml
  MIC ATB combined with Example 1 @8 μg/ml: <0.031 mg/L
[5]; with Example 1 at 8 μg/ml
  MIC ATB combined with Example 1 @8 μg/ml: <0.031 mg/L
[5]; with Example 7 at 8 μg/ml
  MIC ATB combined with Example 7 @8 μgml: >32 mg/L
[5]; with Example 9 @4 μg/ml
  MIC ATB combined with Example 9 @4 μg/ml: 8 mg/L
[5]; with Example 9 at 4 μg/ml
  MIC ATB combined with Example 9 @4 μg/ml: 16 mg/L
[5]; with Example 11 at 8 μg/ml
  MIC ATB combined with Example 11 @8 μg/ml: >32 mg/L
[5]; with Example 12 at 8 μg/ml
  MIC ATB combined with Example 12 @8 μg/ml: >32 mg/L
[5]; with Example 13 at 8 μg/ml
  MIC ATB combined with Example 13 @8 μg/ml: >32 mg/L
[5]; with Example 14 at 8 μg/ml
  MIC ATB combined with Example 14 @8 μg/ml: >32 mg/L
[5]; with Example 15 at 4 μg/ml
  MIC ATB combined with Example 15 @4 μgml: >32 mg/L
[5]; with Example 16 at 4 μg/ml
  MIC ATB combined with Example 16 @4 μg/ml: >32 mg/L
[6]; antibiotic alone
  MIC ATB alone: 2 mg/L
[6]; with Example 1 @8 μg/ml
  MIC ATB combined with Example 1 @8 μg/ml: <0.031 mg/L
[6]; with Example 1 at 8 μg/ml
  MIC ATB combined with Example 1 @8 μg/ml: <0.031 mg/L
[6]; with Example 7 at 8 μg/ml
  MIC ATB combined with Example 7 @8 μgml: 32 mg/L
[6]; with Example 9 @4 μg/ml
  MIC ATB combined with Example 9 @4 μg/ml: 1 mg/L
[6]; with Example 9 at 4 μg/ml
  MIC ATB combined with Example 9 @4 μg/ml: 1 mg/L
